# In the OligoGym collection:
# After the bases stand the sugars from the 5' end (letter, count) and the backbone: PS all phosphorothioate, else s phosphorothioate and o phosphodiester by linkage. Methylation of C is not given here. l = locked nucleic acid (LNA); d = 2'-deoxy (DNA)
# Biological target: SNHG14
# Conditions: ASO
# [1] = Mouse Primary Neuronal Cell, 0.005 µM
Sequence,"target mRNA inhibition (Human Neuronal Cell, 0.2 µM)","target mRNA inhibition (Human Neuronal Cell, 1 µM)","target mRNA inhibition (Human Neuronal Cell, 7.5 µM)",also measured
"CCTACATCTCATACTTG (sugars l4 d11 l2, PS)",-13%,17%,,"target mRNA inhibition (Human Neuronal Cell, 5 µM): 12%; target mRNA inhibition [1]: 94.2%"
"CTCTCCTCAAGATCAAC (sugars l3 d11 l3, PS)",23%,42%,,
"CTTCAAGAATTCTCTC (sugars l2 d10 l4, PS)",44%,43%,,
"ATATTTGTCACCTAAC (sugars l4 d10 l2, PS)",33%,32%,,
"CAACATTATTAACCACCTTA (sugars l1 d13 l3 d1 l2, PS)",,,47%,
"ATTGATTCAATTCCCTT (sugars lddlddddddddlldll, PS)",,,61%,
"CAACATTATTAACCACCTTA (sugars ldlldddddddddddlddll, PS)",,,57%,
"TATTGATTCAATTCCCT (sugars ldddlddddddllldll, PS)",,,10%,
"GCACATTCTTTCTATACCT (sugars ldldlddddddddddddll, PS)",,,57%,
"TTTTTTTCTTACTATCTTCA (sugars l3 d15 l2, PS)",,,28%,
"AAAATCTCAACTACCATTT (sugars l3 d10 l6, PS)",,,48%,
"AAAATTATTTATACACCATC (sugars lllllllddddddldlddll, PS)",,,49%,
"CCTACATCTCATACTTG (sugars l3 d12 l2, PS)",,,,target mRNA inhibition [1]: 96.1%
"ATCATTCTCAACAATTA (sugars l1 d1 l3 d6 l6, PS)",,,-24%,
"TTACCAATAGTTACCT (sugars l3 d10 l3, PS)",33%,48%,,
"CTCCAACATAGATCCTC (sugars l3 d11 l3, PS)",52%,60%,,
"GCTCCATATTTAAATCC (sugars l4 d11 l2, PS)",20%,45%,,
"GCTTTTAACCAGAGTGGC (sugars l1 d14 l3, PS)",,,63%,
"TTTATTTCCATTTATTTTC (sugars l5 d7 l1 d3 l3, PS)",,,55%,
"AATTTTTTTCTTACTATCTT (sugars l1 d12 l1 d2 l4, PS)",,,62%,
"TCTTTCCATTTATTTCCATT (sugars l2 d13 l1 d1 l3, PS)",,,42%,
"TGAAAATCTCAACTACCAT (sugars llldllddddddlddddll, PS)",,,55%,
"GAAAATCTCAACTACCATT (sugars ldllddddddddldldlll, PS)",,,57%,

Sequence,"target mRNA inhibition (Human Neuronal Cell, 0.2 µM)","target mRNA inhibition (Human Neuronal Cell, 1 µM)","target mRNA inhibition (Human Neuronal Cell, 7.5 µM)",also measured
"TTTTTTCTTACTATCTTCAA (sugars l1 d4 l1 d10 l4, PS)",,,55%,
"AGCAACATTATTAACCAC (sugars lddlddddddddldllll, PS)",,,47%,
"TGAAAATCTCAACTACCAT (sugars ldldldddddddldddlll, PS)",,,50%,
"TTTCCATTTATTTCCATTTA (sugars lddddldddddddddlddll, PS)",,,44%,
"TTTACACTTAATTATACTTC (sugars lllddldddddddlldllll, PS)",,,15%,
"CTGTATACACCATCCCA (sugars l1 d1 l1 d12 l2, PS)",,,48%,
"TTATTAACCACCTTAA (sugars l3 d10 l3, PS)",21%,49%,,
"CTATTCTCAGTATTAT (sugars l3 d10 l3, PS)",19%,13%,,
"TATTCTTACCGTCTTT (sugars l2 d10 l4, PS)",60%,68%,,
"CAACATTATTAACCACCTTA (sugars ldldldddddddddddldll, PS)",,,51%,
"TTTATCAATATCTTCTCAC (sugars l1 d4 l1 d9 l4, PS)",,,52%,
"TGTTTATACCCTTTCCA (sugars l3 d12 l2, PS)",35%,50%,,
"ATCATTCTCAACAATTA (sugars l5 d6 l2 d2 l2, PS)",,,31%,
"AGATCATTCTCAACAATTA (sugars ldlddldddddddddllll, PS)",,,50%,
"AGATCATTCTCAACAATT (sugars ldldlldddddddlllll, PS)",,,32%,
"ATCTCATGACCACCTAA (sugars ldldddddddddlldll, PS)",,,51%,
"TTCTTAGTCACACACA (sugars l4 d10 l2, PS)",-3%,-43%,,
"GCTTTTAACCAGAGTG (sugars l4 d10 l2, PS)",,,72%,
"CCACCTAAGACCTCAA (sugars l2 d10 l4, PS)",53%,60%,,
"TACTAAACATACACATA (sugars l4 d11 l2, PS)",9%,25%,,
"TTATAGCCATTCTATCT (sugars llldlddddddldddll, PS)",,,52%,
"CCCAAATAAGCAAACT (sugars l4 d10 l2, PS)",35%,43%,,
"AGTTCTACTATACTTTCC (sugars l2 d14 l2, PS)",,,14%,

Sequence,"target mRNA inhibition (Human Neuronal Cell, 0.2 µM)","target mRNA inhibition (Human Neuronal Cell, 1 µM)","target mRNA inhibition (Human Neuronal Cell, 7.5 µM)",also measured
"CTTGACTACACATCTT (sugars l3 d10 l3, PS)",50%,54%,,
"CTGTATACACCATCCC (sugars l2 d12 l2, PS)",62%,62%,,
"ACTGTTTATACCCTTTCC (sugars l2 d14 l2, PS)",36%,50%,,
"TAAAATTATTTATACACCA (sugars ldlldldddddddllllll, PS)",,,39%,
"TATACCTTTCTTTAACCCTT (sugars l2 d4 l1 d11 l2, PS)",,,51%,
"TTTTTTCTTACTATCTTCAA (sugars llddldldddddddldldll, PS)",,,60%,
"TTACTCTTAGCAACCT (sugars l4 d10 l2, PS)",58%,54%,,
"CACCTTAAGTAACATT (sugars l4 d10 l2, PS)",19%,21%,,
"TATTGATTCAATTCCCT (sugars ldldlddddddddldll, PS)",,,60%,
"GCTTCTACTTAAATAT (sugars l3 d10 l3, PS)",27%,21%,,
"ATTGATTCAATTCCCTT (sugars l3 d8 l3 d1 l2, PS)",,,51%,
"CCTATGTTAATACTTT (sugars l4 d10 l2, PS)",25%,29%,,
"AGCAACATTATTAACCAC (sugars l3 d9 l3 d1 l2, PS)",,,27%,
"TTCTACTATACTTTCC (sugars l4 d10 l2, PS)",55%,69%,,
"TATCTTTCCATTTATTTCCA (sugars l1 d17 l2, PS)",,,-7%,
"TTTCCAATGAATCTAT (sugars l2 d10 l4, PS)",21%,36%,,
"TTATAGCCATTCTATCT (sugars l3 d9 l1 d1 l3, PS)",,,54%,
"AGCTTACCAAATATTC (sugars l4 d10 l2, PS)",17%,23%,,
"AAATCTCAACTACCATTTTT (sugars ldlddldddddddllddlll, PS)",,,29%,
"GTTTCCATCTACTATTAAT (sugars ldddldddddddldldlll, PS)",,,63%,
"AAGATCATTCTCAACAAT (sugars lllldldddddddlldll, PS)",,,19%,
"GCAACATTATTAACCACCT (sugars ldlldlddddddlddldll, PS)",,,44%,
"TGAAACTATTACTCCT (sugars l3 d10 l3, PS)",44%,61%,,

Sequence,"target mRNA inhibition (Human Neuronal Cell, 0.2 µM)","target mRNA inhibition (Human Neuronal Cell, 1 µM)","target mRNA inhibition (Human Neuronal Cell, 7.5 µM)",also measured
"TTTACATTCCCATCATC (sugars l2 d11 l4, PS)",57%,66%,,
"GTTACCTACATCTCAT (sugars l3 d10 l3, PS)",3%,32%,,"target mRNA inhibition (Human Neuronal Cell, 5 µM): 18%; target mRNA inhibition [1]: 93.4%"
"CTGTATACACCATCCCA (sugars l1 d11 l2 d1 l2, PS)",,,53%,
"CTCTGCTTATAACTTT (sugars l4 d10 l2, PS)",20%,53%,,
"ATCCCTTTGTAATCAT (sugars l4 d10 l2, PS)",33%,28%,,
"TGCTACCATCATTACCT (sugars l2 d13 l2, PS)",12%,19%,,
"ATTTTTTTCTTACTATCTTC (sugars lldlddddddddddddldll, PS)",,,50%,
"AGTTCTACTATACTTTC (sugars l3 d1 l1 d10 l2, PS)",,,64%,
"TTTCCATCTACTATTA (sugars l4 d10 l2, PS)",60%,67%,,
"TTATAGCCATTCTATCT (sugars l3 d8 l1 d3 l2, PS)",,,58%,
"TTTTTTCTTACTATCTTCAA (sugars lldlldlddddddddlddll, PS)",,,58%,
"GAAAATCTCAACTACCATT (sugars l4 d10 l1 d1 l3, PS)",,,45%,
"GCCAATACCCACAAAC (sugars l3 d10 l3, PS)",11%,33%,,
"ACTTCACACCTATTATAT (sugars l3 d12 l3, PS)",21%,45%,,
"GATAATTCCAAATCCC (sugars l2 d10 l4, PS)",16%,6%,,
"ACATTATTAACCACCT (sugars l3 d10 l3, PS)",62%,64%,,
"TCAGCTTTTAACCAGAGTG (sugars l2 d14 l3, PS)",,,76%,
"GTTTATACCCTTTCCAA (sugars l3 d11 l3, PS)",57%,63%,,
"CTTTTAACCAGAGTG (sugars l4 d7 l4, PS)",,,54%,
"CTGTACACAATCAACA (sugars l4 d10 l2, PS)",54%,63%,,
